Experiments:
PcGSTd1 [1] = target: T1, PcGSTd1 (Panonychus citri, UniProt H9BTE1); test: CDNB-GSH conjugation, absorbance […] nm; format: biochemical; conditions: 0.6 mM CDNB, 5 mM GSH, 0.05 M Tris-HCl pH 7.5; ECA 0.05-2 mM
T1 construct: full ORF in pET-28a (BamHI/NotI), His-tag kept (Ni-NTA), E. coli TransBL21(DE3); EC 2.5.1.18
T1 sequence (H9BTE1 1-217): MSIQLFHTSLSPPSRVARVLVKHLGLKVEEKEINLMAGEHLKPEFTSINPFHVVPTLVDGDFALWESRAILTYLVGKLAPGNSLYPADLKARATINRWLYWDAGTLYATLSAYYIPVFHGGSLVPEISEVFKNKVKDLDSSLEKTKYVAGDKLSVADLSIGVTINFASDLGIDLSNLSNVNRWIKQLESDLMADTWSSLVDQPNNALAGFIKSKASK

PcGSTd1 [2] = target: T1, PcGSTd1; test: CDNB-GSH conjugation, absorbance […] nm, Lineweaver-Burk; format: biochemical; conditions: co-substrate GSH; 28 C

C=C(CC)C(=O)c1ccc(OCC(=O)O)c(Cl)c1Cl [ethacrynic acid]
IC50 (PcGSTd1 [1]): 1.13 ± 0.12 mM

O=[N+]([O-])c1ccc(Cl)c([N+](=O)[O-])c1 [1-chloro-2,4-dinitrobenzene]
Km (PcGSTd1 [2]): 1820 ± 490 µM

Source: paper PMC5884870, “Antioxidant Role of PcGSTd1 in Fenpropathrin Resistant Population of the Citrus Red Mite, Panonychus citri (McGregor)” (Frontiers in Physiology, 2018)
